Our source for the remaining binding values is US12479847B2 (DANA-FARBER CANCER INSTITUTE, INC., priority 2019, dated 2025).

Assay in all cases: KINOMEscan (ScanMAX) kinase profiling
Holding throughout (format): binding

The target in test [1] is T1, panel of 468 kinases (Homo sapiens, UniProt P42336, Q546K).
T1 construct: purchased KINOMEscan (ScanMAX) service
Conditions: PIK3CA(Q546K); 1 μM; read-out: % control.

The target of test [2] is T2, panel of 468 kinases (Homo sapiens, UniProt Q9H422).
T2 construct: purchased KINOMEscan (ScanMAX) service
The settings on record: HIPK3; 1 μM; read-out: % control.

Test [3] deals with T3, panel of 468 kinases (Homo sapiens, UniProt O75747).
T3 construct: purchased KINOMEscan (ScanMAX) service
T3 sequence (O75747 1-1486): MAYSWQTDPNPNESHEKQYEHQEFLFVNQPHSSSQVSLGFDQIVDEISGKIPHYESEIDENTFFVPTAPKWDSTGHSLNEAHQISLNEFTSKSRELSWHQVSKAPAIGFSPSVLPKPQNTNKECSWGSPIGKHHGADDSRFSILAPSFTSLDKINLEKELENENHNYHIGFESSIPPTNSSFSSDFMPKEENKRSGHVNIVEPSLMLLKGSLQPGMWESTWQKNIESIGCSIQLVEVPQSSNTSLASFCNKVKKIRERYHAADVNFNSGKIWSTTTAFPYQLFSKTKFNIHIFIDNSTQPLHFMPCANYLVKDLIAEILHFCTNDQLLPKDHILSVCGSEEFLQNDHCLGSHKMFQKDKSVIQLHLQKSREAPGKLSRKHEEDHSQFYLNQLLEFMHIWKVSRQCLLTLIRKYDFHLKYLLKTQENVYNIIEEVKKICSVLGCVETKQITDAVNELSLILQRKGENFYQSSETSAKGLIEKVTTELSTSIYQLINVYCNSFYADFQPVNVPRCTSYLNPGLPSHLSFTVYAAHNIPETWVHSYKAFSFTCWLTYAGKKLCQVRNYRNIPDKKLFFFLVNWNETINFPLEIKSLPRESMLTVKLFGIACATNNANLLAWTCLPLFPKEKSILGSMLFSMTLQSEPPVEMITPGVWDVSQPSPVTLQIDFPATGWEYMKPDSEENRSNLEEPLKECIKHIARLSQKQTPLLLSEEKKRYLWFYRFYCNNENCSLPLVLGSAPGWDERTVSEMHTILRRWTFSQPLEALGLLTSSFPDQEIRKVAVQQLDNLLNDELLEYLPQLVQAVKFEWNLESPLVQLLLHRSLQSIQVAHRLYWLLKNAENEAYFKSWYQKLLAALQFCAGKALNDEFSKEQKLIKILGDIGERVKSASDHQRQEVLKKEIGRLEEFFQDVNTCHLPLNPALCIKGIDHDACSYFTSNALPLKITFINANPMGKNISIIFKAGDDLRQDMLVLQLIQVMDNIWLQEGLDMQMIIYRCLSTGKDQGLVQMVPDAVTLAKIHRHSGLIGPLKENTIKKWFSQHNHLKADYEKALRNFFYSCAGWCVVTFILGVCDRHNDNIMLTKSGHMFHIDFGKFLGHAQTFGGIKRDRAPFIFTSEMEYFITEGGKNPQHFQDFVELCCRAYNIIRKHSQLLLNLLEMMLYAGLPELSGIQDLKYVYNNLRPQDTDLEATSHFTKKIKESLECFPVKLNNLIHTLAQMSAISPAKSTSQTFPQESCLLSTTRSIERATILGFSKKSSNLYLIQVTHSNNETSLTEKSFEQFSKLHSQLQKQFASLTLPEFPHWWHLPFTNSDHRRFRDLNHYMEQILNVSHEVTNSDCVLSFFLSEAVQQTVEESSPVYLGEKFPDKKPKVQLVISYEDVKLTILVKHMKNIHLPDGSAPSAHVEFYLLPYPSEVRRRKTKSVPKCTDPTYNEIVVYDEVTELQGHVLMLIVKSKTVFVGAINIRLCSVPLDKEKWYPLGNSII
The settings on record: PIK3C2G; 1 μM; read-out: % control.

Test [4] concerns the target T4, panel of 468 kinases (Homo sapiens, UniProt P32298).
T4 construct: purchased KINOMEscan (ScanMAX) service
Conditions: GRK4; 1 μM; read-out: % control.

Test [5] addresses T5, panel of 468 kinases (Homo sapiens, UniProt P04049).
T5 construct: purchased KINOMEscan (ScanMAX) service
The settings on record: RAF1; 1 μM; read-out: % control.

In test [6] the target is T6, panel of 468 kinases (Homo sapiens, UniProt P57078).
T6 construct: purchased KINOMEscan (ScanMAX) service
T6 sequence (P57078 1-832): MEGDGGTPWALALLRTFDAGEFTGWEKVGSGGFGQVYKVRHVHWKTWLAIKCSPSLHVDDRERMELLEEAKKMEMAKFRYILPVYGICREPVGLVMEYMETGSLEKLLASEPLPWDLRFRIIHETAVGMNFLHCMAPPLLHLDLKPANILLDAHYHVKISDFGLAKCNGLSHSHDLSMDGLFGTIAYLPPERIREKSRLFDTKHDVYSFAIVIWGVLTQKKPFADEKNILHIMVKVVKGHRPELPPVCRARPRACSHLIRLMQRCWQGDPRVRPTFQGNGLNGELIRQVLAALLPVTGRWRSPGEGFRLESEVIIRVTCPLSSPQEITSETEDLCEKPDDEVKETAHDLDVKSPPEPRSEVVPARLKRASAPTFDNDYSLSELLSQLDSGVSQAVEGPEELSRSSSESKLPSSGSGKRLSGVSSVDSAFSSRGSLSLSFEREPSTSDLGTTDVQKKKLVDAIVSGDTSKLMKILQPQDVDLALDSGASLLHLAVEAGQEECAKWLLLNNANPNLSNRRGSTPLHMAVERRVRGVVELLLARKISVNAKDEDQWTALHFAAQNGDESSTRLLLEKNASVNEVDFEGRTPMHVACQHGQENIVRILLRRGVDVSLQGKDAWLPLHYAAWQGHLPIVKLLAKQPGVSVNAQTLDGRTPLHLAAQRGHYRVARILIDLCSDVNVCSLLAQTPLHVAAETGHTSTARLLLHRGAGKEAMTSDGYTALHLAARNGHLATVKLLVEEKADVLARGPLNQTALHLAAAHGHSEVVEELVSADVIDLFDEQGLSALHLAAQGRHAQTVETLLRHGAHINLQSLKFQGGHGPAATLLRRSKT
The settings on record: RIPK4; 1 μM; read-out: % control.

Test [7] has as its target T7, panel of 468 kinases (Homo sapiens, UniProt Q9H2X6).
T7 construct: purchased KINOMEscan (ScanMAX) service
The settings on record: HIPK2; 1 μM; read-out: % control.

T4 sequence (P32298 whole entry): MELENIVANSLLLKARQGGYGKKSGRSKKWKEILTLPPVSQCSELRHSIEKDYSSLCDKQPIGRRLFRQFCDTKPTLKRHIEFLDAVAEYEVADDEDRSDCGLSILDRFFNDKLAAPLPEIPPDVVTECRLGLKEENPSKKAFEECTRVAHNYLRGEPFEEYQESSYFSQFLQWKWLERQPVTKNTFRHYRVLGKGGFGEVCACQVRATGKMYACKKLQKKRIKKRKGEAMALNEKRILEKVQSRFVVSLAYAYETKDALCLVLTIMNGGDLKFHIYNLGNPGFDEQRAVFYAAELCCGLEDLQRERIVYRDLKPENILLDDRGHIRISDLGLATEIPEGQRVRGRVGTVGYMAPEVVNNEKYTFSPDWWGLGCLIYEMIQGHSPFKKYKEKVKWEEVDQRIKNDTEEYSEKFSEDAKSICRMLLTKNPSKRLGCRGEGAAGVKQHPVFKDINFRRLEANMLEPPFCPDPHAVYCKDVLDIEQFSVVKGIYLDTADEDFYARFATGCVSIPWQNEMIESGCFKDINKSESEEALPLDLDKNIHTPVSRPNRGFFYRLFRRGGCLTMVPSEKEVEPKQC
T1 sequence (P42336 whole entry Q546K): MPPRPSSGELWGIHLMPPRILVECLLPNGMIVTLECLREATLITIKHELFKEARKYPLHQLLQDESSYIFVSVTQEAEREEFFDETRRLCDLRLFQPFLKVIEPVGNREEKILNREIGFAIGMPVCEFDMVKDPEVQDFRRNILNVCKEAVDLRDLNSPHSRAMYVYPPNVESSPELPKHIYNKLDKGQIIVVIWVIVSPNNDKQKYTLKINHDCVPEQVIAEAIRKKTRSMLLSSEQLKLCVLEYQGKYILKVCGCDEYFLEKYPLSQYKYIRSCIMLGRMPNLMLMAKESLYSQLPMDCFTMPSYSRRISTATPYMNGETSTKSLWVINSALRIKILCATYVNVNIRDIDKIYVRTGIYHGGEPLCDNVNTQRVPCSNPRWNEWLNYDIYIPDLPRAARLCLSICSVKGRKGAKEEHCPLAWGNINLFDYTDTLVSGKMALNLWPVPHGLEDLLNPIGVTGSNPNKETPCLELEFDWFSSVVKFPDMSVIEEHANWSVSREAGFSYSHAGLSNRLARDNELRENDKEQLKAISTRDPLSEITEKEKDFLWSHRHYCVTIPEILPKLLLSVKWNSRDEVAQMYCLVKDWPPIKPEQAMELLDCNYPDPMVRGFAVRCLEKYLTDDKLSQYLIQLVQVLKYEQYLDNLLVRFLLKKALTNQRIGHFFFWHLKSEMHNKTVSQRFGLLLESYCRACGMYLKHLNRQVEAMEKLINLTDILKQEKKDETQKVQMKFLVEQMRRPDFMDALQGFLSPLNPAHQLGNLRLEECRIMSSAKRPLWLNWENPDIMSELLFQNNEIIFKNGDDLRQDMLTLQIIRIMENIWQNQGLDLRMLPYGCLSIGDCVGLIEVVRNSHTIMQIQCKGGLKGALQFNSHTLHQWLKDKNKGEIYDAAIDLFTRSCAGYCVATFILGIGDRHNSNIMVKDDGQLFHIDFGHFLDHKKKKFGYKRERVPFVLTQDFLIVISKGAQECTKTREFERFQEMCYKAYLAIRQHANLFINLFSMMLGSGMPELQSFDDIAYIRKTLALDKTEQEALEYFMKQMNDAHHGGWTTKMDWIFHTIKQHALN
T7 sequence (Q9H2X6 whole entry): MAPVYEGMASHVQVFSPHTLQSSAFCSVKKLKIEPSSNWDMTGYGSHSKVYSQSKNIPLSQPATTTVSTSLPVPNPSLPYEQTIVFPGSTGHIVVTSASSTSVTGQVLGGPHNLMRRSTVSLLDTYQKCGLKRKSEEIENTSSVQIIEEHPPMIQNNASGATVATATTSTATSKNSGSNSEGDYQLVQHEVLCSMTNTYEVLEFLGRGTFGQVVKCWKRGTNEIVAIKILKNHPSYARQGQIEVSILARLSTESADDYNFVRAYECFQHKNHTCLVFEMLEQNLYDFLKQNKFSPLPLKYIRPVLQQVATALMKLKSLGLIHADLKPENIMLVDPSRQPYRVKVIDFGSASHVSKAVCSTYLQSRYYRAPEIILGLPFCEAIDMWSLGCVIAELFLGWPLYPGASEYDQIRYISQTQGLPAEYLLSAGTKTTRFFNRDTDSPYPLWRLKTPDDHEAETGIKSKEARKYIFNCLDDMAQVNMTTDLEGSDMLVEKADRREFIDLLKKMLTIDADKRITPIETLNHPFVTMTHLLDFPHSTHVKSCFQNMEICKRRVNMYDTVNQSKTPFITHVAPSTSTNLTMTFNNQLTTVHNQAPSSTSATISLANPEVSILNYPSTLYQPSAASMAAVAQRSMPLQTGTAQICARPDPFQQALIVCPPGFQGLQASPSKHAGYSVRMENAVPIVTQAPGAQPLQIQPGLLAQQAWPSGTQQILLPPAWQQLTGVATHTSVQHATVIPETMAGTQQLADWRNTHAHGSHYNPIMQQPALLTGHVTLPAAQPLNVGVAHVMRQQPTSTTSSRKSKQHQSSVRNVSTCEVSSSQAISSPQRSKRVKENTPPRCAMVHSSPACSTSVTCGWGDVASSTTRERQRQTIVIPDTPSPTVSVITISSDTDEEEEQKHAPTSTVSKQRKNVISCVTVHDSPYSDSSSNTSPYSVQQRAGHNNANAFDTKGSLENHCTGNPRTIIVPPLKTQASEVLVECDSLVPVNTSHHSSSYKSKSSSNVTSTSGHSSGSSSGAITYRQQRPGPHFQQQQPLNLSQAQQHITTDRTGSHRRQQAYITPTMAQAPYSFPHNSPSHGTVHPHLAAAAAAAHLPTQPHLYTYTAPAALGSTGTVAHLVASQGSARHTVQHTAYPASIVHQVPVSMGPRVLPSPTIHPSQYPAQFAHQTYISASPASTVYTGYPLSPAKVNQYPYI
T2 sequence (Q9H422 whole entry): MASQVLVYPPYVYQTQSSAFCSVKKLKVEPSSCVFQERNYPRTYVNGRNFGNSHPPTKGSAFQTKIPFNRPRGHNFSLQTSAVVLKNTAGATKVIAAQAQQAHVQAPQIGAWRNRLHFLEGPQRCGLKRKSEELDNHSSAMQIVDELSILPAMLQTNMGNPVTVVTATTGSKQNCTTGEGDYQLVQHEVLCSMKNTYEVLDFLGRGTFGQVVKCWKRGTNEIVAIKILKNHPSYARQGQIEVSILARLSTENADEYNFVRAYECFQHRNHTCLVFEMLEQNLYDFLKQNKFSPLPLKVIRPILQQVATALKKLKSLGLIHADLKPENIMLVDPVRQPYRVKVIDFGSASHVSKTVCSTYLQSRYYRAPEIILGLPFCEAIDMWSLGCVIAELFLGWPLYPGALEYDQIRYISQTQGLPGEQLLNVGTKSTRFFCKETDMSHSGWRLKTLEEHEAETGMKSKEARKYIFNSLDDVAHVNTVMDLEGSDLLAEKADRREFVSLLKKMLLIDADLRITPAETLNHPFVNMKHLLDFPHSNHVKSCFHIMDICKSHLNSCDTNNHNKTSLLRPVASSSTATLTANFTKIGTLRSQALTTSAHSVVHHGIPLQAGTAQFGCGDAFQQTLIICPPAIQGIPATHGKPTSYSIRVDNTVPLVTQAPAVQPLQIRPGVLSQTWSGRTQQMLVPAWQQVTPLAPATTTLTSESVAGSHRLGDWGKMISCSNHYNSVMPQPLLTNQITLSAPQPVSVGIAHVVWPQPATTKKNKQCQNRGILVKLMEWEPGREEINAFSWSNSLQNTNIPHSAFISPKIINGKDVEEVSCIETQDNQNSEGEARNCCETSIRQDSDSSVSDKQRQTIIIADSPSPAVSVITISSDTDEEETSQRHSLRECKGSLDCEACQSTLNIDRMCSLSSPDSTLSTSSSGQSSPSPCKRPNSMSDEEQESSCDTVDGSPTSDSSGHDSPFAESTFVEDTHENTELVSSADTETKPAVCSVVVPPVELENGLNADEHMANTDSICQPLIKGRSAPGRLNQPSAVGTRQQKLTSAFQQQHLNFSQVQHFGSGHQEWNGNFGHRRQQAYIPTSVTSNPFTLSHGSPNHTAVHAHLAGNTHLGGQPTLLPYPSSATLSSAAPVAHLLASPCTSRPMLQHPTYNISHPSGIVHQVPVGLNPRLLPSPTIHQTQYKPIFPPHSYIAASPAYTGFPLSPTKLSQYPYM
T5 sequence (P04049 whole entry): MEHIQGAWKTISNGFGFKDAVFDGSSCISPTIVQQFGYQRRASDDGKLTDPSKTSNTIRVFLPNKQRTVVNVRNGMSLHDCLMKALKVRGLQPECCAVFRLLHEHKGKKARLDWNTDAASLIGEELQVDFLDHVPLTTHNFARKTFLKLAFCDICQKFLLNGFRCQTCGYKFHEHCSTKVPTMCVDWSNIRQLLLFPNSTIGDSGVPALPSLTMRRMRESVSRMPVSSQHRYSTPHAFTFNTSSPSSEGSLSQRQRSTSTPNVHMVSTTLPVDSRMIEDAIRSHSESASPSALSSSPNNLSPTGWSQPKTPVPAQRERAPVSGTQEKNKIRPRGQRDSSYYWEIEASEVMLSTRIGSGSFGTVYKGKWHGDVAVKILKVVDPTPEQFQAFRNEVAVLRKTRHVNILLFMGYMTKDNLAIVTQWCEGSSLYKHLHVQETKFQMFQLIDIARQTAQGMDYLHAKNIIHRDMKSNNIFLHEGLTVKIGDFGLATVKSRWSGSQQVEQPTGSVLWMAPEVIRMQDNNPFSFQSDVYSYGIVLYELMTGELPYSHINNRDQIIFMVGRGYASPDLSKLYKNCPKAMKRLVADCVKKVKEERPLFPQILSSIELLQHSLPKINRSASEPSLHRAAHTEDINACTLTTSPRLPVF

On to `CNc1nc(Nc2ccc(C(=O)N3CCC(N4CCOCC4)CC3)c3c2OCO3)nc2[nH]cc(Cl)c12` [Compound 75, (7-((5-chloro-4-(methylamino)-7H-pyrrolo[2,3-d]pyrimidin-2-yl)amino)benzo[d][1,3]dioxol-4-yl)(4-morpholinopiperidin-1-yl)methanone], for which the remaining binding at 1 µM on panel of 468 kinases [1] came out at 65%; at panel of 468 kinases [2], 59%; at panel of 468 kinases [3], 100%; on panel of 468 kinases [4], 41%; on panel of 468 kinases [5], 100%; on panel of 468 kinases [6] it was 89%. In addition, at panel of 468 kinases [7], the remaining binding at 1 µM worked out at 66%.
Take `CNc1nc(Nc2ccc(P3(=O)CCN(C4CCOCC4)CC3)cc2OC)nc2[nH]cc(Cl)c12` [Compound 77, 4-(4-((5-chloro-4-(methylamino)-7H-pyrrolo[2,3-d]pyrimidin-2-yl)amino)-3-methoxyphenyl)-1-(tetrahydro-2H-pyran-4-yl)-1,4-azaphosphinane 4-oxide]: the remaining binding at 1 µM at panel of 468 kinases [1] came to 46%; at panel of 468 kinases [2] it was 64%; on panel of 468 kinases [3] it was 93%; on panel of 468 kinases [4] it was 95%; on panel of 468 kinases [5] it was 100%; on panel of 468 kinases [6], 98%. At panel of 468 kinases [7], the remaining binding at 1 µM was 95%.
For `CNc1nc(Nc2ccc(S(=O)(=O)N3CCC(N4CCOCC4)CC3)cc2OC)nc2[nH]cc(Cl)c12` [Compound 12, 5-chloro-N2-(2-methoxy-4-((4-morpholinopiperidin-1-yl)sulfonyl)phenyl)-N4-methyl-7H-pyrrolo[2,3-d]pyrimidine-2,4-diamine], the remaining binding at 1 µM at panel of 468 kinases [1] worked out at 50%; at panel of 468 kinases [2], 72%; on panel of 468 kinases [3], 100%; on panel of 468 kinases [4] it was 100%; at panel of 468 kinases [5], 100%; on panel of 468 kinases [6], 76%. Moreover, the remaining binding at 1 µM on panel of 468 kinases [7] stood at 100%.
